From patent publication US7037495B1, “Antimicrobial compositions” (priority 1999, dated 2006)

Legend:
Type in all cases: cell-based, Escherichia coli
TOP10 E. coli + bcrA [1] = test: MIC determination by microtitre broth dilution method, TOP10 E. coli + bcrA; conditions: for Growth of TOP10 E. coli + bcrA: 24 h at 37° C.
Experimental: (§1) MIC Determination by Microtitre Broth Dilution Method
(§2) TOP10 E. coli with or without (O) bcrA were grown to a concentration of 2×10^4 cfu/ml (bcrA+was grown in the presence of 100 μg/ml ampicillin to select for the pBAD-TOPO vector) in RPMI medium (Sigma) in the presence of 0.002% L-arabinose, as the inducer of the bcrA gene. 100 μl TOP10 E. coli±bcrA was dispensed into 96 well microtitre plate (Sigma) to give a final concentration of 1×10^4 cfu/ml. […] The plates were incubated for 24 h at 37° C. and scored by growth or no growth.

TOP10 E. coli − bcrA = test: MIC determination by microtitre broth dilution method, TOP10 E. coli − bcrA; conditions: 24 h at 37° C.
Experimental: as §1, §2

TOP10 E. coli + bcrA [2] = test: Phage clone activity against resistance of TOP10 E. coli + bcrA to nalidixic acid; conditions: for Nalidixic acid MIC: in the presence of phage (neat and diluted 1:10), TOP10 E. coli + bcrA, 24 h at 37° C.
Experimental: TOP10 E. coli+bcrA were grown to a concentration of 2×10^4 cfu/ml in RPMI medium (Sigma) containing 100 μg/ml ampicillin (to select for the pBAD-TOPO vector) in the presence of 0.002% L-arabinose, as the inducer of the bcrA gene. 100 μl TOP10 E. coli+bcrA, at a final concentration of 1×10^4 cfu/ml, were dispensed into 96 well microtitre plate (Sigma) in the presence of neat phage and phage diluted 1:10 (see table below). Serial doubling dilutions nalidixic acid was added to each well, with the concentration ranging from 128 to 0.25 μg/ml. A control with just the media was set up. The plates were incubated for 24 h at 37° C. Six phage clones were tested.

[3] = TOP10 E. coli + bcrA versus − bcrA

N=C(NCCCCCCNC(=N)NC(=N)Nc1ccc(Cl)cc1)NC(=N)Nc1ccc(Cl)cc1 [Chlorohexadine]
+: Growth of TOP10 E. coli + bcrA (TOP10 E. coli + bcrA [1]; antibiotic 0.125 μg/ml) | Growth of TOP10 E. coli + bcrA (TOP10 E. coli + bcrA [1]; antibiotic 0.25 μg/ml) | Growth of TOP10 E. coli + bcrA (TOP10 E. coli + bcrA [1]; antibiotic 0.5 μg/ml) | Growth of TOP10 E. coli + bcrA (TOP10 E. coli + bcrA [1]; antibiotic 1 μg/ml) | Growth of TOP10 E. coli + bcrA (TOP10 E. coli + bcrA [1]; antibiotic 2 μg/ml) | Growth of TOP10 E. coli + bcrA (TOP10 E. coli + bcrA [1]; antibiotic 4 μg/ml) | Growth of TOP10 E. coli + bcrA (TOP10 E. coli + bcrA [1]; antibiotic 8 μg/ml) | Growth of TOP10 E. coli − bcrA (TOP10 E. coli − bcrA; antibiotic 0.125 μg/ml) | Growth of TOP10 E. coli − bcrA (TOP10 E. coli − bcrA; antibiotic 0.25 μg/ml) | Growth of TOP10 E. coli − bcrA (TOP10 E. coli − bcrA; antibiotic 0.5 μg/ml) | Growth of TOP10 E. coli − bcrA (TOP10 E. coli − bcrA; antibiotic 1 μg/ml) | Growth of TOP10 E. coli − bcrA (TOP10 E. coli − bcrA; antibiotic 2 μg/ml) | Growth of TOP10 E. coli − bcrA (TOP10 E. coli − bcrA; antibiotic 4 μg/ml) | Growth of TOP10 E. coli − bcrA (TOP10 E. coli − bcrA; antibiotic 8 μg/ml)
−: Growth of TOP10 E. coli + bcrA (TOP10 E. coli + bcrA [1]; antibiotic 16 μg/ml) | Growth of TOP10 E. coli + bcrA (TOP10 E. coli + bcrA [1]; antibiotic 32 μg/ml) | Growth of TOP10 E. coli + bcrA (TOP10 E. coli + bcrA [1]; antibiotic 64 μg/ml) | Growth of TOP10 E. coli + bcrA (TOP10 E. coli + bcrA [1]; antibiotic 128 μg/ml) | Growth of TOP10 E. coli − bcrA (TOP10 E. coli − bcrA; antibiotic 16 μg/ml) | Growth of TOP10 E. coli − bcrA (TOP10 E. coli − bcrA; antibiotic 32 μg/ml) | Growth of TOP10 E. coli − bcrA (TOP10 E. coli − bcrA; antibiotic 64 μg/ml) | Growth of TOP10 E. coli − bcrA (TOP10 E. coli − bcrA; antibiotic 128 μg/ml)
No resistance: resistance conferred by the bcrA gene in TOP10 E. coli (TOP10 E. coli + bcrA [1]; [3])

O=C(O)c1cn(C2CC2)c2cc(N3CCNCC3)c(F)cc2c1=O [Ciprofloxacin]
No resistance: resistance conferred by the bcrA gene in TOP10 E. coli (TOP10 E. coli + bcrA [1]; [3])
−: Growth of TOP10 E. coli + bcrA (TOP10 E. coli + bcrA [1]; antibiotic 0.25 μg/ml) | Growth of TOP10 E. coli + bcrA (TOP10 E. coli + bcrA [1]; antibiotic 0.5 μg/ml) | Growth of TOP10 E. coli + bcrA (TOP10 E. coli + bcrA [1]; antibiotic 1 μg/ml) | Growth of TOP10 E. coli + bcrA (TOP10 E. coli + bcrA [1]; antibiotic 2 μg/ml) | Growth of TOP10 E. coli + bcrA (TOP10 E. coli + bcrA [1]; antibiotic 4 μg/ml) | Growth of TOP10 E. coli + bcrA (TOP10 E. coli + bcrA [1]; antibiotic 8 μg/ml) | Growth of TOP10 E. coli + bcrA (TOP10 E. coli + bcrA [1]; antibiotic 16 μg/ml) | Growth of TOP10 E. coli + bcrA (TOP10 E. coli + bcrA [1]; antibiotic 32 μg/ml) | Growth of TOP10 E. coli + bcrA (TOP10 E. coli + bcrA [1]; antibiotic 64 μg/ml) | Growth of TOP10 E. coli + bcrA (TOP10 E. coli + bcrA [1]; antibiotic 128 μg/ml) | Growth of TOP10 E. coli − bcrA (TOP10 E. coli − bcrA; antibiotic 0.25 μg/ml) | Growth of TOP10 E. coli − bcrA (TOP10 E. coli − bcrA; antibiotic 0.5 μg/ml) | Growth of TOP10 E. coli − bcrA (TOP10 E. coli − bcrA; antibiotic 1 μg/ml) | Growth of TOP10 E. coli − bcrA (TOP10 E. coli − bcrA; antibiotic 2 μg/ml) | Growth of TOP10 E. coli − bcrA (TOP10 E. coli − bcrA; antibiotic 4 μg/ml) | Growth of TOP10 E. coli − bcrA (TOP10 E. coli − bcrA; antibiotic 8 μg/ml) | Growth of TOP10 E. coli − bcrA (TOP10 E. coli − bcrA; antibiotic 16 μg/ml) | Growth of TOP10 E. coli − bcrA (TOP10 E. coli − bcrA; antibiotic 32 μg/ml) | Growth of TOP10 E. coli − bcrA (TOP10 E. coli − bcrA; antibiotic 64 μg/ml) | Growth of TOP10 E. coli − bcrA (TOP10 E. coli − bcrA; antibiotic 128 μg/ml)
+: Growth of TOP10 E. coli + bcrA (TOP10 E. coli + bcrA [1]; antibiotic 0.125 μg/ml) | Growth of TOP10 E. coli − bcrA (TOP10 E. coli − bcrA; antibiotic 0.125 μg/ml)

CCn1cc(C(=O)O)c(=O)c2ccc(C)nc21 [Nalidixic Acid]
−: Growth of TOP10 E. coli + bcrA (TOP10 E. coli + bcrA [1]; antibiotic 16 μg/ml) | Growth of TOP10 E. coli + bcrA (TOP10 E. coli + bcrA [1]; antibiotic 32 μg/ml) | Growth of TOP10 E. coli + bcrA (TOP10 E. coli + bcrA [1]; antibiotic 64 μg/ml) | Growth of TOP10 E. coli + bcrA (TOP10 E. coli + bcrA [1]; antibiotic 128 μg/ml) | Growth of TOP10 E. coli − bcrA (TOP10 E. coli − bcrA; antibiotic 4 μg/ml) | Growth of TOP10 E. coli − bcrA (TOP10 E. coli − bcrA; antibiotic 8 μg/ml) | Growth of TOP10 E. coli − bcrA (TOP10 E. coli − bcrA; antibiotic 16 μg/ml) | Growth of TOP10 E. coli − bcrA (TOP10 E. coli − bcrA; antibiotic 32 μg/ml) | Growth of TOP10 E. coli − bcrA (TOP10 E. coli − bcrA; antibiotic 64 μg/ml) | Growth of TOP10 E. coli − bcrA (TOP10 E. coli − bcrA; antibiotic 128 μg/ml)
three well difference: difference in MIC in TOP10 E. coli ± bcrA (TOP10 E. coli + bcrA [1]; TOP10 E. coli + bcrA versus − bcrA, doubling dilutions)
16 µg/mL: MIC (TOP10 E. coli + bcrA [2]; Escherichia coli, 24 h, read-out: Nalidixic acid MIC)
+: Growth of TOP10 E. coli + bcrA (TOP10 E. coli + bcrA [1]; antibiotic 0.125 μg/ml) | Growth of TOP10 E. coli + bcrA (TOP10 E. coli + bcrA [1]; antibiotic 0.25 μg/ml) | Growth of TOP10 E. coli + bcrA (TOP10 E. coli + bcrA [1]; antibiotic 0.5 μg/ml) | Growth of TOP10 E. coli + bcrA (TOP10 E. coli + bcrA [1]; antibiotic 1 μg/ml) | Growth of TOP10 E. coli + bcrA (TOP10 E. coli + bcrA [1]; antibiotic 2 μg/ml) | Growth of TOP10 E. coli + bcrA (TOP10 E. coli + bcrA [1]; antibiotic 4 μg/ml) | Growth of TOP10 E. coli + bcrA (TOP10 E. coli + bcrA [1]; antibiotic 8 μg/ml) | Growth of TOP10 E. coli − bcrA (TOP10 E. coli − bcrA; antibiotic 0.125 μg/ml) | Growth of TOP10 E. coli − bcrA (TOP10 E. coli − bcrA; antibiotic 0.25 μg/ml) | Growth of TOP10 E. coli − bcrA (TOP10 E. coli − bcrA; antibiotic 0.5 μg/ml) | Growth of TOP10 E. coli − bcrA (TOP10 E. coli − bcrA; antibiotic 1 μg/ml) | Growth of TOP10 E. coli − bcrA (TOP10 E. coli − bcrA; antibiotic 2 μg/ml)

CN(C)[C@@H]1C(O)=C(C(N)=O)C(=O)[C@@]2(O)C(O)=C3C(=O)c4c(O)cccc4[C@@](C)(O)[C@H]3C[C@@H]12 [Tetracycline]
−: Growth of TOP10 E. coli + bcrA (TOP10 E. coli + bcrA [1]; antibiotic 8 μg/ml) | Growth of TOP10 E. coli + bcrA (TOP10 E. coli + bcrA [1]; antibiotic 16 μg/ml) | Growth of TOP10 E. coli + bcrA (TOP10 E. coli + bcrA [1]; antibiotic 32 μg/ml) | Growth of TOP10 E. coli + bcrA (TOP10 E. coli + bcrA [1]; antibiotic 64 μg/ml) | Growth of TOP10 E. coli + bcrA (TOP10 E. coli + bcrA [1]; antibiotic 128 μg/ml) | Growth of TOP10 E. coli − bcrA (TOP10 E. coli − bcrA; antibiotic 4 μg/ml) | Growth of TOP10 E. coli − bcrA (TOP10 E. coli − bcrA; antibiotic 8 μg/ml) | Growth of TOP10 E. coli − bcrA (TOP10 E. coli − bcrA; antibiotic 16 μg/ml) | Growth of TOP10 E. coli − bcrA (TOP10 E. coli − bcrA; antibiotic 32 μg/ml) | Growth of TOP10 E. coli − bcrA (TOP10 E. coli − bcrA; antibiotic 64 μg/ml) | Growth of TOP10 E. coli − bcrA (TOP10 E. coli − bcrA; antibiotic 128 μg/ml)
+: Growth of TOP10 E. coli + bcrA (TOP10 E. coli + bcrA [1]; antibiotic 0.125 μg/ml) | Growth of TOP10 E. coli + bcrA (TOP10 E. coli + bcrA [1]; antibiotic 0.25 μg/ml) | Growth of TOP10 E. coli + bcrA (TOP10 E. coli + bcrA [1]; antibiotic 0.5 μg/ml) | Growth of TOP10 E. coli + bcrA (TOP10 E. coli + bcrA [1]; antibiotic 1 μg/ml) | Growth of TOP10 E. coli + bcrA (TOP10 E. coli + bcrA [1]; antibiotic 2 μg/ml) | Growth of TOP10 E. coli + bcrA (TOP10 E. coli + bcrA [1]; antibiotic 4 μg/ml) | Growth of TOP10 E. coli − bcrA (TOP10 E. coli − bcrA; antibiotic 0.125 μg/ml) | Growth of TOP10 E. coli − bcrA (TOP10 E. coli − bcrA; antibiotic 0.25 μg/ml) | Growth of TOP10 E. coli − bcrA (TOP10 E. coli − bcrA; antibiotic 0.5 μg/ml) | Growth of TOP10 E. coli − bcrA (TOP10 E. coli − bcrA; antibiotic 1 μg/ml) | Growth of TOP10 E. coli − bcrA (TOP10 E. coli − bcrA; antibiotic 2 μg/ml)

AIISFGFMAFFGSVV [Peptide 1]
2 µg/mL: Nalidixic acid MIC (TOP10 E. coli + bcrA [2])

HRLDRMVASFAFHR [Peptide 3]
8 µg/mL: Nalidixic acid MIC (TOP10 E. coli + bcrA [2])

SVVIFPLWQTVMGYT [Peptide 2]
16 µg/mL: Nalidixic acid MIC (TOP10 E. coli + bcrA [2])
